Assay [1] has as its system Sympathetic Nerve Discharge. As to the kind of experiment: Sympathetic Nerve Discharge (SND) in chloralose anesthetized cats. The assay is classed as in vivo. Conditions: for Max. Decr. SND %: maximum inhibition of sympathetic activity in dose range 0.001-1.0 mg/kg i.v., cats. The procedure:
Sympathetic Nerve Discharge (SND): The i.v. mg/kg dose causing a 50% depression in SND in chloralose anesthetized cats and the maximum inhibition of sympathetic activity observed in the dose range tested (0.00 1-1.0 mg/kg i.v. ).

The nature of assay [2]: BP SND/MAX: blood pressure of chloralose anesthetized cats. Conditions: for % BP Control: blood pressure in percent control at the dose causing 50% depression in SND, cats i.v.; for Max. Decr. BP (at SND ED50): maximum reduction in blood pressure as percent of control, 0.001-1.0 mg/kg i.v., cats. It is filed as in vivo. On the procedure: BP SND/MAX: The blood pressure of the chloralose anesthetized cats in percent control at the dose causing 50% depression in SND and the maximum reduction in blood pressure as percent of the control blood pressure in the same animals observed in the dose range tested (0.001-1.0 mg/kg i.v.).

Assay [3] in a line: Hypothermia in mice (s.c.). It is filed as in vivo. Conditions: subcutaneous, dose required to depress temperature by 2° C. in two of four mice; for ED50: Mus musculus, sc. On the procedure:
Hypothermia: Starting with a dose of 30 mg/kg, four mice are injected subcutaneously with test compound. Twenty minutes later, the number of animals whose body temperature has decreased by 2° C. or more are counted. If all four animals reach criteria, the drug is considered "active", and subsequent readings are taken at 60 and 120 minutes after drug. The time for last statistically significant drug affect on mean body temperature is indicated in minutes. […] Potency is given as mg/kg ED50 (dose required to depress temperature in two of four mice) as measured by Spearman-Karber statistics.

The subject of assay [4] is 5-HT1A receptor. Description: Selectivity, IC50 ratio of dopamine D2 to 5-HT1A in vitro binding. Conditions: result in words. An excerpt: (§1) The compounds of this invention where R1 is in 8-position in the aromatic ring are very selective 5-HT1A receptor agonists having generally little or no dopaminergic activity. […] The compound of this invention where R1 is in 5-position in the aromatic ring, on the other hand, have dopaminergic activity with little 5-HT1A agonist activity. […] These compounds are particularly effective anxiolytic and antidepressant agents. Other uses for these compounds include panic attacks, obsessive-compulsive disturbances, and senile dementia particularly the emotional disturbances seen in dementia disorders. In addition, central 5 -HT receptor activation are believed to be involved in mediating sexual behavior. These compounds would be useful to stimulate sexual activity and to alleviate impotence. The compounds of this invention are also useful to alleviate aggressive behavior, confusional delirious states.

Assay [5] concerns the target T1, 5-hydroxytryptamine (5-HT1A) receptor (Bos taurus, UniProt F6Q2H9).
T1 construct: from tissue; host or cells: bovine brain homogenate
T1 sequence (F6Q2H9 1-422): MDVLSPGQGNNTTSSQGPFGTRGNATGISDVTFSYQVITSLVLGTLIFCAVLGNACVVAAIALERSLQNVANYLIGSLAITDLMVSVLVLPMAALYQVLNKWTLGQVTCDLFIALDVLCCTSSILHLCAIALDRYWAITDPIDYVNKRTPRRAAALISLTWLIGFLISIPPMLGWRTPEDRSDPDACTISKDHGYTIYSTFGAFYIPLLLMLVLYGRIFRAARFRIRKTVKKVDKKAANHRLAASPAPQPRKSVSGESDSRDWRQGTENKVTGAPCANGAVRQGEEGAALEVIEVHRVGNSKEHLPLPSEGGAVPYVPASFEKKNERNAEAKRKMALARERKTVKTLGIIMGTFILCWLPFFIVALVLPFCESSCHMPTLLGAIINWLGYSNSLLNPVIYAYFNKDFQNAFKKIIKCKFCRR
Description: Inhibition of 8-OH-DPAT binding in a bovine brain homogenate (5-HT1A binding). From the text:
Binding: Inhibition of 8-OH-DPAT binding in a bovine brain homogenate. Potency is given as nM dose required to inhibit 50% of DPAT binding (IC50). This test measures ability to bind to 5-hydroxytryptamine (5-HT1A) receptor.

The test system of a further assay is dopamine. Description: Dopamine activity (evaluation of dopamine and serotonin metabolites). The settings on record: result in words.
Text: as §1

Assay [6] deals with 5-HT1A receptor. As to the kind of experiment: 5-HT1A agonist activity. The settings on record: result in words.
Text: as §1

The conditions of assay [7]: Chem. Ab., 79: 146294b; cited from earlier work.
For assay [8] the following is noted: J. Pharm. Sci., 67, 880-82 (1978); cited from earlier work.
The subject of another assay is dopamine receptors. The settings on record: background, result in words; cited from earlier work.
The conditions of assay [9]: some patients; result in words; cited from earlier work.
For the next assay, the system named is dopamine autoreceptors. Conditions: background, result in words; cited from earlier work.
The conditions of assay [10]: man, low doses; result in words; cited from earlier work.

Counter-ions that a name gives are not always drawn.

One may read the ED50 as the dose that gives a 50% effect, or the effect in half of the subjects. Read a low ED50 as an effect at a small dose. What is called IC50 is the midpoint of a concentration-inhibition curve. A low value points to higher potency.

With `C=CCN1CC[C@@H]2c3ccccc3CC[C@@H]21.Cl` (racemic) [Example 4 Compound #1, Cis-(+-)-2,3,3a,4,5,9b-hexahydro-3-(2-propenyl)-1H-benz[e]indole hydrochloride], it took a dose of 0.09 mg/kg to reach the 50% effect level in assay [1] (Felis catus, iv, i.v. dose causing 50% depression in SND, chloralose anesthetized cats) (ED50). Also, in [1], the “Max. Decr. SND %” value stood at 0.0%. In addition, in assay [2], the “% BP Control” value is reported as 76% and the “Max. Decr. BP (at SND ED50)” value was found to be 60%.
For the compound `C=CCN1CC[C@@H]2c3c(cccc3OC)CC[C@@H]21` (racemic) [Example 4 Compound #2, cis-(+-)-2,3,3a,4,5,9b-hexahydro-9-methoxy-3-(2-propenyl)-1H-benz[e]indole hydrochloride], in assay [3], the 50% effect level (ED50) was put at a dose of 2.3 mg/kg. Also, the “selectivity for the 5-HT1A receptor” value with 5-HT1A receptor [4] is on record as “demonstrates the selectivity for the 5-HT1A receptor”. In addition, the IC50 in assay [5] stood at 2.8 nM.
The compound `C=CCN1CC[C@@H]2c3cccc(OC)c3CC[C@@H]21.Cl` (racemic) [Example 4 Compound #3, Cis-(+-)-2,3,3a,4,5,9b-hexahydro-6-methoxy-3-(2-propenyl)-1H-benz[e]indole hydrochloride] returned an ED50 in assay [3] of 30 mg/kg. The dopamine activity entry with dopamine (hydrochloride) is given as “good selective dopamine activity”; in the assay on dopamine (listed as Example 4, compound #3, hydrochloride), “selective dopamine antagonist activity”. The compound also displayed an IC50 in assay [5] of 628 nM. In the assay on 5-HT1A receptor [6], the 5-HT1A agonist activity result was “low 5-HT1A agonist activity”.
For the compound `C=CCN1[C@H](C)C[C@H]2c3c(O)cccc3CC[C@H]21` (relative stereo) [Example 2 Compound #1, (+-)-2α,3,3a,α,4,5,9b,α-hexahydro-2-methyl-3-(2-propenyl)-1H-benz[e]indol-9-ol hydrochloride], it took a dose of 5.5 mg/kg to reach the 50% effect level in [3] (ED50). Besides, in assay [5], the IC50 was determined as 0.96 nM.
For `CN(C)C1CCc2ccc(O)cc2C1(C)C` (stereo not drawn) [1,1-Dimethyl-2-(N,N-dimethylamino)-7-hydroxytetralin], the “analgesic and intestinal movement accelerating actions” value in [7] is “analgesic and intestinal movement accelerating actions”.
Take `COc1cccc2c1CCC(NC1CC1)C2C` (stereo not drawn) [1-methyl-2-(cyclopropylamino)-5-methoxytetralin]: the local anesthetic activity entry in assay [8] is “local anesthetic activity”.
Take `O=C1CC2(CCCC2)CC(=O)N1CCCCN1CCN(c2ncccn2)CC1` [Buspirone]: the dopamine receptor antagonism result in the assay on dopamine receptors is listed as “antagonizes dopamine receptors at the same dose it stimulates 5-HT1A receptors”.
Take `CC1(C)CC(=O)N(CCCCN2CCN(c3ncccn3)CC2)C(=O)C1` [Gepirone]: in the assay on dopamine receptors, the dopamine receptor antagonism result is reported as “dopamine antagonist properties”. Also, the “effects on depressive endpoints” value in [9] is “ameliorative effects on some depressive endpoints in some patients”.
Turning to `CN1CCc2cccc3c2[C@H]1Cc1ccc(O)c(O)c1-3` [apomorphine], the “activation of dopamine autoreceptors and post synaptic dopamine receptors” value in the assay on dopamine autoreceptors is given as “able to activate the dopamine autoreceptors as well as the post synaptic dopamine receptors”. Besides, the “anti-psychotic and anti-dyskinetic effects” value in assay [10] was “anti-psychotic and anti-dyskinetic effects in man”.
Consider “(+-)-1,2,2a,-3,4,8b-hexahydro-8-methoxy-2-(prop-2-en-1-yl)-naphtho[2, 1-B]azetidine hydrochloride [Example 5 Compound #1]”, for which the “Hypothermia ED50” value in [3] was found to be 4.1 mg/kg. In [1] (i.v. dose causing 50% depression in SND, chloralose anesthetized cats), the “SND ED50” value came out at 0.083 mg/kg. In addition, in [1], the “Max. Decr. SND %” value was found to be 14.0%. In assay [2], the “% BP Control” value worked out at 77% and the “Max. Decr. BP (at SND ED50)” value is recorded as 59%. This compound had an IC50 in assay [5] of 14.8 nM.

The record behind these values is patent publication US5491236A, “(1,2N) and (3,2N)-carbocyclic-2-amino tetralin derivatives” (The Upjohn Company, priority 1991, dated 1996).
